Test results reported in ChEMBL document CHEMBL4673328, “Three bufadienolides induce cell death in the human lung cancer cell line CL1-5 mainly through autophagy” (Bioorg Med Chem Lett, 2021).
Values joined by “and” are separate entries in the source; they are usually repeats but may differ in a detail not shown here. Equal values may be shown once. Active and inactive are the calls of the source. The calls are words filed in the database; no cut-off is given here.

Key:
[1] = Induction of cell cycle arrest in human CL1-5 cells assessed as G0/G1 phase at 100 nM incubated for 24 hrs by propidium iodide staining based flow cytometry analysis (reference value: 62.2%); assay type: functional
[2] = Induction of cell cycle arrest in human CL1-5 cells assessed as G2/M phase at 100 nM incubated for 24 hrs by propidium iodide staining based flow cytometry analysis (reference value: 18.04%); assay type: functional
[3] = tested on: CL1-5; experiment: Induction of autophagy in human CL1-5 cells assessed as LC3-GFP punta formation at 100 nM incubated for 24 hrs by confocal microscopic analysis; assay type: functional, cell-based
[4] = Cytotoxicity against human CL1-5 cells assessed as reduction in cell viability incubated for 24 hrs by MTT assay; assay type: functional, cell-based; conditions: CL1-5, 24 h
[5] = Induction of cell cycle arrest in human CL1-5 cells assessed as subG1 phase at 100 nM incubated for 24 hrs by propidium iodide staining based flow cytometry analysis (reference value: 2.28%); assay type: functional
[6] = Induction of autophagy in human CL1-5 cells assessed as fold decrease in p62 expression level at 100 nM incubated for 24 hrs by Western blot analysis relative to control; assay type: functional
[7] = Induction of autophagy in human CL1-5 cells assessed as fold change in p62 expression level at 100 nM incubated for 24 hrs in presence of early-stage autophagy inhibitor, 3-MA by Western blot analysis relative to control; assay type: functional
[8] = Induction of autophagy in human CL1-5 cells assessed as fold increase in Beclin 1 expression level at 100 nM incubated for 24 hrs by Western blot analysis relative to control; assay type: functional
[9] = Induction of autophagy in human CL1-5 cells assessed as fold increase in mTOR expression level at 100 nM incubated for 24 hrs by Western blot analysis relative to control; assay type: functional
[10] = Induction of apoptosis in human CL1-5 cells assessed as necrotic cells at 100 nM incubated for 24 hrs by AnnexinV/FITC and propidium iodide staining based flow cytometry analysis (reference value: 0.285%); assay type: functional
[11] = Induction of autophagy in human CL1-5 cells assessed as proportion of cells with degradative autophagic compartment at 100 nM incubated for 24 hrs by acridine orange staining based flow cytometry analysis (reference value: 0.34%); assay type: functional
[12] = Induction of autophagy in human CL1-5 cells assessed as fold change in LC3-I expression level at 100 nM incubated for 24 hrs by Western blot analysis relative to control; assay type: functional
[13] = Induction of autophagy in human CL1-5 cells assessed as fold decrease in phosphorylated mTOR expression level at 100 nM incubated for 24 hrs by Western blot analysis relative to control; assay type: functional
[14] = Induction of autophagy in human CL1-5 cells assessed as fold increase in Atg5 expression level at 100 nM incubated for 24 hrs by Western blot analysis relative to control; assay type: functional
[15] = Induction of cell cycle arrest in human CL1-5 cells assessed as S phase at 100 nM incubated for 24 hrs by propidium iodide staining based flow cytometry analysis (reference value: 16.85%); assay type: functional
[16] = Induction of autophagy in human CL1-5 cells assessed as fold increase in Atg7 expression level at 100 nM incubated for 24 hrs by Western blot analysis relative to control; assay type: functional
[17] = Induction of apoptosis in human CL1-5 cells assessed as early apoptotic cells at 100 nM incubated for 24 hrs by AnnexinV/FITC and propidium iodide staining based flow cytometry analysis (reference value: 2.65%); assay type: functional
[18] = Induction of apoptosis in human CL1-5 cells assessed as viable cells at 100 nM incubated for 24 hrs by AnnexinV/FITC and propidium iodide staining based flow cytometry analysis (reference value: 94.8 %); assay type: functional; conditions: read-out: Activity
[19] = Induction of autophagy in human CL1-5 cells assessed as fold increase in LC3-II expression level at 100 nM incubated for 24 hrs by Western blot analysis relative to control; assay type: functional
[20] = Induction of apoptosis in human CL1-5 cells assessed as late apoptotic cells at 100 nM incubated for 24 hrs by AnnexinV/FITC and propidium iodide staining based flow cytometry analysis (reference value: 2.30%); assay type: functional
[21] = Induction of autophagy in human CL1-5 cells assessed as fold decrease in phosphorylated mTOR expression level at 50 nM incubated for 24 hrs by Western blot analysis relative to control; assay type: functional
[22] = tested on: CL1-5; experiment: Induction of autophagy in human CL1-5 cells assessed as LC3-GFP punta formation at 50 nM incubated for 24 hrs by confocal microscopic analysis; assay type: functional, cell-based
[23] = Induction of autophagy in human CL1-5 cells assessed as fold decrease in p62 expression level at 50 nM incubated for 24 hrs by Western blot analysis relative to control; assay type: functional
[24] = Induction of autophagy in human CL1-5 cells assessed as fold change in LC3-I expression level at 50 nM incubated for 24 hrs by Western blot analysis relative to control; assay type: functional
[25] = Induction of autophagy in human CL1-5 cells assessed as fold increase in Atg7 expression level at 50 nM incubated for 24 hrs by Western blot analysis relative to control; assay type: functional
[26] = Induction of autophagy in human CL1-5 cells assessed as fold increase in LC3-II expression level at 50 nM incubated for 24 hrs by Western blot analysis relative to control; assay type: functional
[27] = Induction of autophagy in human CL1-5 cells assessed as fold increase in Beclin 1 expression level at 50 nM incubated for 24 hrs by Western blot analysis relative to control; assay type: functional
[28] = Induction of autophagy in human CL1-5 cells assessed as fold increase in mTOR expression level at 50 nM incubated for 24 hrs by Western blot analysis relative to control; assay type: functional
[29] = Induction of autophagy in human CL1-5 cells assessed as fold increase in Atg5 expression level at 50 nM incubated for 24 hrs by Western blot analysis relative to control; assay type: functional

Structure (SMILES) | Activity [1] [%] | Activity [2] [%] | Activity [3] | IC50 [4] | Activity [5] [%] | fold change (FC) [6] | fold change (FC) [7] | fold change (FC) [8] | fold change (FC) [9] | Activity [10] [%] | Activity [11] [%] | fold change (FC) [12] | fold change (FC) [13] | fold change (FC) [14] | Activity [15] [%] | fold change (FC) [16] | Activity [17] [%] | viability at 0.1 µM [18] [%] | fold change (FC) [19] | Activity [20] [%] | other results
C[C@H]1C[C@H](O)[C@H](O)[C@H](O[C@H]2CC[C@]3(C=O)[C@H]4[C@H](O)C(=O)[C@]5(C)[C@@H](c6ccc(=O)oc6)CC[C@]5(O)[C@@H]4CC[C@]3(O)C2)O1 | 43.83 | 28.04 | Active | 0.0523 µg/mL and 90.8 nM | 2.14 | 0.4 | 0.56 | 12.86 | 1.1 | 0.91 | 14.45 | 0.93 | 0.08 | 2.77 | 24.94 | 1.76 | 4.72 | 88.8 | 2.55 | 5.52 | 
CO[C@H]1C[C@@H]2CC[C@@H](C)[C@@](O)(O2)C(=O)C(=O)N2CCCC[C@H]2C(=O)O[C@H]([C@H](C)C[C@@H]2CC[C@@H](O)[C@H](OC)C2)CC(=O)[C@H](C)/C=C(\C)[C@@H](O)[C@@H](OC)C(=O)[C@H](C)C[C@H](C)/C=C/C=C/C=C/1C [SIROLIMUS] |  |  |  |  |  |  |  |  |  |  |  |  |  |  |  |  |  |  |  |  | fold change (FC) [21]: 0.26; Activity [22]: Active; fold change (FC) [23]: 0.79; fold change (FC) [24]: 1.69; fold change (FC) [25]: 1.26; fold change (FC) [26]: 1.3; fold change (FC) [27]: 16.57; fold change (FC) [28]: 1.14; fold change (FC) [29]: 2.17
CC(=O)O[C@H]1C[C@H](C)O[C@@H](O[C@H]2CC[C@]3(C=O)[C@H]4[C@H](O)C(=O)[C@]5(C)[C@@H](c6ccc(=O)oc6)CC[C@]5(O)[C@@H]4CC[C@]3(O)C2)[C@H]1O | 60.1 | 23.65 | Active | 0.0706 µg/mL and 114 nM | 1.81 | 0.42 | 1.19 | 10.47 | 1.28 | 0.658 | 12.29 | 0.69 | 0.31 | 1.51 | 13.21 | 1.18 | 3.53 | 90.9 | 1.84 | 4.93 | 
C[C@@]12O[C@H]3C[C@@H](O1)[C@]1(C=O)[C@H]4[C@H](O)C(=O)[C@]5(C)[C@@H](c6ccc(=O)oc6)CC[C@]5(O)[C@@H]4CC[C@@]1(C3)O2 | 60.71 | 23.26 | inactive | 0.0767 µg/mL and 162 nM | 2.25 | 0.59 | 1.02 | 3.2 | 1.23 | 1.3 | 11.35 | 1.03 | 0.58 | 2.01 | 13.2 | 1.18 | 4.19 | 88.6 | 2.36 | 5.88 | 
CC(=O)O[C@H]1C(=O)[C@@]2(C)[C@H]([C@H](OC(=O)c3ccccc3)[C@]3(O)C[C@H](OC(=O)[C@H](O)[C@@H](NC(=O)c4ccccc4)c4ccccc4)C(C)=C1C3(C)C)[C@]1(OC(C)=O)CO[C@@H]1C[C@@H]2O [PACLITAXEL] |  |  |  |  |  |  |  |  |  | 2.31 |  |  |  |  |  |  | 18.6 | 72 |  |  | 
